For one assay, the system named is GM1 production. Put plainly: cells. The class given is cell-based.
Assay [1] deals with glucosylceramide synthase (GCS) (Homo sapiens (Human), UniProt Q16739). Put plainly: Evaluation of inhibitory activities against GCS (enzyme reaction with A549 cell lysate, NBD C6-ceramide, HPLC fluorescence). To be noted: GCS activity in A549 cell lysate, 37° C. for 90 minutes. The class given is biochemical. The procedure: Ibiglustat, known as a GCS inhibitor, was used as a control.
Chain of glucosylceramide synthase (GCS) (Q16739 whole entry, looked up): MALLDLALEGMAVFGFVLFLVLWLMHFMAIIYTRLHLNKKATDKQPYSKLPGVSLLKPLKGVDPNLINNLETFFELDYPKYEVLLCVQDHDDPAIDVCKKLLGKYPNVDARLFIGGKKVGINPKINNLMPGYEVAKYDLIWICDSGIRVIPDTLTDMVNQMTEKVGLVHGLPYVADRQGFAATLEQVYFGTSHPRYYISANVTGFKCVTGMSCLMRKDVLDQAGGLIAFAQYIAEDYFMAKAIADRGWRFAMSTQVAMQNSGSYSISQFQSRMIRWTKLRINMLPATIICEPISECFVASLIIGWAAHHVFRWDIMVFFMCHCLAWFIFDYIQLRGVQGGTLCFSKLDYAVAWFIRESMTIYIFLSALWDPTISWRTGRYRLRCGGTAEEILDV
After the cells attached to the culture dish were washed with phosphate buffered saline (PBS), the cells were scraped off with a cell scraper and then centrifuged (4000 rpm, 3 min, 4° C.) to collect the cells in a 50 ml tube. The cell pellets were suspended in a lysis buffer (50 mM HEPES, pH 7.3, containing 1× the protease/phosphatase inhibitor cocktail), lysed by sonication, and then the lysate was centrifuged (13000 rpm, 10 min, 4° C.). The obtained supernatant was used for the quantitative analysis of proteins. The amount of proteins was measured using the BCA protein assay kit, using bovine serum albumin as a standard.
Enzymatic reactions were initiated by sequentially adding the following reaction materials to a 96 deep-well plate. Thereafter, the enzymatic reactions were performed at 37° C. for 90 minutes.
The enzymatic reactions were stopped by adding 100 μl of chloroform/methanol (2:1, v/v). After vortexing for 15 seconds, each mixture was centrifuged (4000 rpm, 10 min, 18° C.). The lower layer (50 μl) was transferred to a new 96 deep-well plate and dried with a reduced concentrator.
Data analysis was performed by the following equations. % Area (Sample)=Area (GlcCer)/[Area (Cer)+Area (GlcCer)]×100 % GCS activity=[Area(Sample)−Area(ibiglustat)]/[Area(DMSO)−Area(ibiglustat)]×100

Like-named read-outs stand apart in the source and are kept apart here.

For the compound `CCc1ccccc1-c1ccc2c(c1)CCCC2NC(=O)O[C@@H]1CN2CCC1CC2` (stereo partly drawn) [Example 41, (S)-quinuclidin-3-yl (6-(2-ethylphenyl)-1,2,3,4-tetrahydronaphthalen-1-yl)carbamate], the IC50 in the assay on GM1 production (Homo sapiens, Jurkat, 72 h) was 292 nM; in assay [1], 9.08 nM.

For `O=C(NC1CCCc2cc(-c3ccc4c(c3)OC(F)(F)O4)ccc21)O[C@@H]1CN2CCC1CC2` (stereo partly drawn) [Example 42, (S)-quinuclidin-3-yl (6-(2,2-difluorobenzo[d][1,3]dioxol-5-yl)-1,2,3,4-tetrahydronaphthalen-1-yl)carbamate], the IC50 in the assay on GM1 production (Homo sapiens, Jurkat, 72 h) turned out to be 210 nM; in assay [1], 6.71 nM.

Take `O=C(NC1CCCc2cc(-c3ccc4c(c3)OCCO4)ccc21)O[C@@H]1CN2CCC1CC2` (stereo partly drawn) [Example 43, (S)-quinuclidin-3-yl (6-(2,3-dihydrobenzo[b][1,4]dioxin-6-yl)-1,2,3,4-tetrahydronaphthalen-1-yl)carbamate]: the IC50 in the assay with GM1 production (Homo sapiens, Jurkat, 72 h) turned out to be 616 nM; in assay [1] it was 6.06 nM.

With `O=C(NC1CCCc2cc(-c3ccc4c(c3)OCC4)ccc21)O[C@@H]1CN2CCC1CC2` (stereo partly drawn) [Example 44, (S)-quinuclidin-3-yl (6-(2,3-dihydrobenzofuran-6-yl)-1,2,3,4-tetrahydronaphthalen-1-yl)carbamate], the IC50 turned out to be 480 nM in the assay on GM1 production (Homo sapiens, Jurkat, 72 h) and 7.59 nM in assay [1].

`O=C(NC1CCCc2cc(-c3ccc(N4CCOCC4)cc3)ccc21)O[C@@H]1CN2CCC1CC2` (stereo partly drawn) [Example 45, (S)-quinuclidin-3-yl (6-(4-morpholinophenyl)-1,2,3,4-tetrahydronaphthalen-1-yl)carbamate]: the IC50 in the assay on GM1 production (Homo sapiens, Jurkat, 72 h) worked out at 152 nM; in assay [1], 21.3 nM.

As for `COc1ccc(-c2ccc3c(c2)CCCC3NC(=O)O[C@@H]2CN3CCC2CC3)cc1` (stereo partly drawn) [Example 46, (S)-quinuclidin-3-yl (6-(4-methoxyphenyl)-1,2,3,4-tetrahydronaphthalen-1-yl)carbamate], the IC50 came to 216 nM in the assay on GM1 production (Homo sapiens, Jurkat, 72 h) and 13 nM in assay [1].

As for `COc1cccc(-c2ccc3c(c2)CCCC3NC(=O)O[C@@H]2CN3CCC2CC3)c1` (stereo partly drawn) [Example 47, (S)-quinuclidin-3-yl (6-(3-methoxyphenyl)-1,2,3,4-tetrahydronaphthalen-1-yl)carbamate], the IC50 is 433 nM with GM1 production (Homo sapiens, Jurkat, 72 h) and 2.52 nM in assay [1].

Turning to `COc1ccccc1-c1ccc2c(c1)CCCC2NC(=O)O[C@@H]1CN2CCC1CC2` (stereo partly drawn) [Example 48, (S)-quinuclidin-3-yl (6-(2-methoxyphenyl)-1,2,3,4-tetrahydronaphthalen-1-yl)carbamate], the IC50 was found to be 362 nM in the assay on GM1 production (Homo sapiens, Jurkat, 72 h) and 3.02 nM in assay [1].

Take `O=C(NC1CCCc2cc(-c3ccncc3F)ccc21)O[C@@H]1CN2CCC1CC2` (stereo partly drawn) [Example 49, (S)-quinuclidin-3-yl (6-(3-fluoropyridin-4-yl)-1,2,3,4-tetrahydronaphthalen-1-yl)carbamate]: the IC50 in the assay on GM1 production (Homo sapiens, Jurkat, 72 h) amounted to 412 nM; in assay [1], 35 nM.

Regarding `Cc1cc(-c2ccc3c(c2)CCCC3NC(=O)O[C@@H]2CN3CCC2CC3)ccn1` (stereo partly drawn) [Example 50, (S)-quinuclidin-3-yl (6-(2-methylpyridin-4-yl)-1,2,3,4-tetrahydronaphthalen-1-yl)carbamate], the IC50 in the assay on GM1 production (Homo sapiens, Jurkat, 72 h) turned out to be 2190 nM; in assay [1], 33.5 nM.

Turning to `COc1cc(-c2ccc3c(c2)CCCC3NC(=O)O[C@@H]2CN3CCC2CC3)ccn1` (stereo partly drawn) [Example 51, (S)-quinuclidin-3-yl (6-(2-methoxypyridin-4-yl)-1,2,3,4-tetrahydronaphthalen-1-yl)carbamate], the IC50 in the assay with GM1 production (Homo sapiens, Jurkat, 72 h) is 426 nM; in assay [1] it was 9.42 nM.

Consider `O=C(NC1CCCc2cc(-c3cnc4[nH]ccc4c3)ccc21)O[C@@H]1CN2CCC1CC2` (stereo partly drawn) [Example 52, (S)-quinuclidin-3-yl (6-(1H-pyrrolo[2,3-b]pyridin-5-yl)-1,2,3,4-tetrahydronaphthalen-1-yl)carbamate], for which the IC50 with GM1 production (Homo sapiens, Jurkat, 72 h) was 22.7 nM; in assay [1] it was 31.8 nM.

With `O=C(NC1CCCc2cc(-c3cncnc3)ccc21)O[C@@H]1CN2CCC1CC2` (stereo partly drawn) [Example 53, (S)-quinuclidin-3-yl (6-(pyrimidin-5-yl)-1,2,3,4-tetrahydronaphthalen-1-yl)carbamate], the IC50 with GM1 production (Homo sapiens, Jurkat, 72 h) came out at 314 nM; in assay [1] it was 86.4 nM.

As for `O=C(NC1CCCc2cc(-c3ccnc4[nH]ccc34)ccc21)O[C@@H]1CN2CCC1CC2` (stereo partly drawn) [Example 54, (S)-quinuclidin-3-yl (6-(1H-pyrrolo[2,3-b]pyridin-4-yl)-1,2,3,4-tetrahydronaphthalen-1-yl)carbamate], the IC50 with GM1 production (Homo sapiens, Jurkat, 72 h) was found to be 216 nM; in assay [1], 61.8 nM.

As to `O=C(NC1CCCc2ccc(-c3ccc(F)cc3)cc21)O[C@@H]1CN2CCC1CC2` (stereo partly drawn) [Example 55, (S)-quinuclidin-3-yl (7-(4-fluorophenyl)-1,2,3,4-tetrahydronaphthalen-1-yl)carbamate], the IC50 in the assay on GM1 production (Homo sapiens, Jurkat, 72 h) came to 110 nM; in assay [1] it was 34.1 nM.

On to `Cc1ccc(-c2ccc3c(c2)C(NC(=O)O[C@@H]2CN4CCC2CC4)CCC3)cc1` (stereo partly drawn) [Example 57, (S)-quinuclidin-3-yl (7-(p-tolyl)-1,2,3,4-tetrahydronaphthalen-1-yl)carbamate], for which the IC50 was 81.2 nM in the assay with GM1 production (Homo sapiens, Jurkat, 72 h) and 23.4 nM in assay [1].

Turning to `O=C(NC1CCCc2ccc(-c3cccc(F)c3)cc21)O[C@@H]1CN2CCC1CC2` (stereo partly drawn) [Example 58], the concentration for half-maximal inhibition (IC50) was found to be 73.5 nM in the assay with GM1 production (read-out: IC50) and 10.8 nM in assay [1].

For `O=C(NC1CCCc2ccc(-c3ccccc3F)cc21)O[C@@H]1CN2CCC1CC2` (stereo partly drawn) [Example 61], the values for the IC50 (with GM1 production (read-out: IC50); in assay [1]) were 61.9 nM and 8.48 nM, respectively.

`O=C(NC1CCCc2ccc(-c3ccccc3Cl)cc21)O[C@@H]1CN2CCC1CC2` (stereo partly drawn) [Example 62, (S)-quinuclidin-3-yl (7-(2-chlorophenyl)-1,2,3,4-tetrahydronaphthalen-1-yl)carbamate]: the IC50 worked out at 49.2 nM with GM1 production (Homo sapiens, Jurkat, 72 h) and 7.37 nM in assay [1].

For the compound `O=C(NC1CCCc2ccc(-c3ccccc3C(F)(F)F)cc21)O[C@@H]1CN2CCC1CC2` (stereo partly drawn) [Example 63, (S)-quinuclidin-3-yl (7-(2-(trifluoromethyl)phenyl)-1,2,3,4-tetrahydronaphthalen-1-yl)carbamate], the IC50 in the assay on GM1 production (Homo sapiens, Jurkat, 72 h) came to 41.8 nM; in assay [1], 6.7 nM.

Regarding `O=C(NC1CCCc2ccc(-c3ccc(F)c(F)c3)cc21)O[C@@H]1CN2CCC1CC2` (stereo partly drawn) [Example 64, (S)-quinuclidin-3-yl (7-(3,4-difluorophenyl)-1,2,3,4-tetrahydronaphthalen-1-yl)carbamate], the IC50 in the assay on GM1 production (Homo sapiens, Jurkat, 72 h) turned out to be 131 nM; in assay [1], 13 nM.

Take `O=C(NC1CCCc2ccc(-c3ccc(F)cc3F)cc21)O[C@@H]1CN2CCC1CC2` (stereo partly drawn) [Example 65, (S)-quinuclidin-3-yl (7-(2,4-difluorophenyl)-1,2,3,4-tetrahydronaphthalen-1-yl)carbamate]: the IC50 came out at 95.5 nM with GM1 production (Homo sapiens, Jurkat, 72 h) and 14.2 nM in assay [1].

`O=C(NC1CCCc2ccc(-c3cc(F)c(F)cc3F)cc21)O[C@@H]1CN2CCC1CC2` (stereo partly drawn) [Example 66, (S)-quinuclidin-3-yl (7-(2,4,5-trifluorophenyl)-1,2,3,4-tetrahydronaphthalen-1-yl)carbamate]: the IC50 was 102 nM in the assay on GM1 production (Homo sapiens, Jurkat, 72 h) and 46.9 nM in assay [1].

With `O=C(NC1CCCc2ccc(-c3cc(F)ccc3F)cc21)O[C@@H]1CN2CCC1CC2` (stereo partly drawn) [Example 67, (S)-quinuclidin-3-yl (7-(2,5-difluorophenyl)-1,2,3,4-tetrahydronaphthalen-1-yl)carbamate], the IC50 in the assay with GM1 production (Homo sapiens, Jurkat, 72 h) came out at 38.3 nM; in assay [1], 7.3 nM.
